We go through three compounds from patent US20230382944A1, “NOVEL COCRYSTALS OF DEXAMETHASONE” (Versitech Limited, priority 2022, published 2023).

Assay type in all cases: physicochemical
Data set [1] is described as follows: Particle size distribution measurement by laser diffraction. Particulars: sieved below 63 μm, n = 3; for Span: (D90-D10)/D50. On the procedure:
The particle size and size distribution of the powders was determined using laser diffraction equipment, Mastersizer 3000 (Malvern Instruments Ltd, Worcestershire, UK) with Aero S dry powder disperser. […] The particle size distribution was calculated from the light scattering pattern using Mie theory. Particle size at 10% (D10), 50% (D50), 90% (D90) of the volume distribution were calculated automatically using the Mastersizer 3000 software […]. Span was calculated as (D90-D10)/D50. All the samples were measured in triplicate.

Data set [2] is described as follows: Stability study: drug assay by HPLC and PXRD before and after storage at 25° C./75% RH. Particulars: storage 25° C./75% RH; for % Difference (Day 0-Day 30): Day 0 vs Day 30. As for the experimental part:
(§1) The mobile phase consisted of a mixture of methanol and water (65:35, v/v). A 30 μL aliquot of each sample solution was injected onto the column with a flow rate of 1 mL/min.
The samples before and after the storage were collected for PXRD analysis.

Data set [3] is described as follows: In-vitro drug release study for nasal delivery in pH 5.5 simulated nasal fluid. Particulars: for IDR ratio of DEX cocrystals to DEX: pH 5.5 SNF, estimated by ratio of the slope with sphere assumption; for release in SNF relative to raw DEX (fold faster) / dissolution relative to raw DEX (fold faster): pH 5.5 simulated nasal fluid; for release in SNF relative to raw DEX (fold faster): at 120 min, particle size below 63 μm; for dissolution relative to raw DEX (fold faster): time point not stated. As for the experimental part:
as §1
The solution was stirred at 50 rpm on a magnetic stirrer. The dissolution medium and temperature were selected to mimic the physiological condition in the nasal cavity^35, 36. At designated times of 5, 10, 15, 20, 30, 45, 60, 90, and 120 min, 1 mL of the dissolution medium was withdrawn and replaced with an equal volume of fresh medium. The sample solution was filtered through 0.45 μm nylon syringe filters and assayed for drug content by HPLC. The intrinsic dissolution rate (IDR) is determined by the following equation: IDR=(dm/dt)max/A, where (dm/dt)max is the slope of the initial linear region of the cumulative dissolution curve until 10% of drug is dissolved, and A is the specific surface area of the dissolution sample. The following assumptions were made: (i) spherical particles, (ii) constant particle size, and (iii) constant number of particles during the initial phase of the dissolution experiment under sink condition. With the assumptions, the particle size distribution data collected by laser diffractometry is used for the particle surface area (SAparticle) calculation. The total number of particles (n) subject to dissolution is calculated by Vbulk/Vparticle, where Vparticle is the volume of each primary particle, and Vbulk is the volume of compound added to the dissolution medium. The total surface area of all particles added to the dissolution medium is thus calculated through nSAparticle. Finally, the specific surface area (A, m^2/g) defined as the total surface area of a material per unit of mass could be obtained.

Data set [4] is described as follows: In-vitro aerosol performance evaluation with Next Generation Impactor. Particulars: NGI; for FPF: 90 L/min, particles <5 μm vs recovered dose. On the procedure:
The spray dryer is equipped with a Buchi B-296 Dehumidifier and B-295 Inert Loop and a spray nozzle tip diameter of 0.7 mm with nitrogen as the atomization gas. The formulations were prepared according to the processing parameters listed in Table 6, above, with a rate of aspirations fixed at 100% (approximately 35 m^3/h), resulting in an outlet temperature of about 44° C.
A thin layer of silicon grease (Slipicone; DC Products, Waverley, VIC, Australia) coated onto the impactor stages minimizes particle bounce. […] Precise amounts of methanol were used for rinsing DEX and RES in all stages. The solutions were subsequently filtered using a 0.45 μm nylon syringe filters and the solutions assayed by HPLC. The recovered dose, fine particle fraction (FPF), mass median aerodynamic diameter (MMAD), and geometric standard deviation (GSD) were calculated. The FPF is the mass fraction of the particles <5 μm with respect to the recovered dose. The recovered dose was defined as the sum of powder mass assayed on all the parts.

The mark [5] stands for this setting: spray-dried 1:1 from methanol, flow rate 90 L/min.

With `C[C@@H]1C[C@H]2[C@@H]3CCC4=CC(=O)C=C[C@]4(C)[C@@]3(F)[C@@H](O)C[C@]2(C)[C@@]1(O)C(=O)CO` [DEX, 9-fluoro-11β,17,21-trihydroxy-16α-methylpregna-1,4-diene-3,20-dione, reference compound], the “Volumetric size D10” value in data set [1] worked out at 0.93 ± 0.16 μm. In addition, the “Volumetric size D50” value in data set [1] was found to be 1.52 ± 0.50 μm. The compound also displayed a Span in data set [1] of 3.15 ± 0.46. Moreover, the “% of DEX Remaining (n = 3)” value in data set [2] (Day 0) was found to be 98.77 ± 2.97%; in data set [2] (Day 7), 97.23 ± 4.27%; in data set [2] (Day 30), 94.50 ± 3.00%. Also, in data set [2], the “% Difference (Day 0-Day 30)” value is given as 4.27 ± 5.14%.

On to `CC1CC2C3CCC4=CC(=O)C=CC4(C)C3(F)C(O)CC2(C)C1(O)C(=O)CO.Oc1ccccc1O` (centres unmarked) [DEX-CAT], for which, in data set [1], the “Volumetric size D10” value is recorded as 8.49 ± 1.76 μm, the “Volumetric size D50” value came out at 24.87 ± 6.75 μm, the “Volumetric size D90” value was found to be 49.27 ± 6.42 μm and the Span turned out to be 5.14 ± 0.28. For the same compound, in data set [3], the “IDR ratio of DEX cocrystals to DEX” value was 76.86, the “release in SNF relative to raw DEX (fold faster)” value is 2.4 fold and the “dissolution relative to raw DEX (fold faster)” value is listed as 3 fold. In data set [2] (Day 0), the “% of DEX Remaining (n = 3)” value was found to be 97.83 ± 2.32%. Moreover, the “% Difference (Day 0-Day 30)” value in data set [2] was 2.38 ± 5.49%. Moreover, the “% of DEX Remaining (n = 3)” value in data set [2] (Day 7) came to 96.73 ± 4.72%. Besides, the “% of DEX Remaining (n = 3)” value in data set [2] (Day 30) came out at 95.45 ± 3.35%.

On to `CC1CC2C3CCC4=CC(=O)C=CC4(C)C3(F)C(O)CC2(C)C1(O)C(=O)CO.Oc1cccc(O)c1` (centres unmarked) [DEX-RES], for which the FPF in data set [4] (spray-dried 1:1 from methanol) was determined as 35.43 % w/w. The compound also had an FPF in data set [4] (spray-dried 1:1 from methanol, listed as spray dried cocrystal formulation) of 35.43±4.97 % w/w. In data set [4] (setting [5]), the GSD was 2.30 μm and the MMAD amounted to 2.96 μm. For the same compound, the MMAD in data set [4] (spray-dried 1:1 from methanol, flow rate 90 L/min, listed as spray dried cocrystal formulation) stood at 2.96±0.49 μm. Also, the “aerosolized powders deposited on stages 3-6” value in data set [4] (spray-dried, aerodynamic diameters 3.61 to 0.76 μm) is listed as 30.26%. Moreover, in data set [1], the “Volumetric size D10” value turned out to be 4.46 ± 1.93 μm, the “Volumetric size D50” value worked out at 12.0 ± 0.42 μm, the “Volumetric size D90” value is 35.03 ± 8.92 μm and the Span is recorded as 7.69 ± 0.93. For the same compound, in data set [3], the “IDR ratio of DEX cocrystals to DEX” value was 48.29, the “release in SNF relative to raw DEX (fold faster)” value is 2.4 fold and the “dissolution relative to raw DEX (fold faster)” value is 3 fold. In data set [2] (Day 0), the “% of DEX Remaining (n = 3)” value is given as 99.65 ± 2.58%. In addition, the “% Difference (Day 0-Day 30)” value in data set [2] amounted to 4.50 ± 4.07%. Besides, the “% of DEX Remaining (n = 3)” value in data set [2] (Day 7) worked out at 97.18 ± 3.87%. Further, the “% of DEX Remaining (n = 3)” value in data set [2] (Day 30) amounted to 95.15 ± 3.17%.
